Reference: ChEMBL document CHEMBL1201862, “PubChem BioAssay data set” (2004)
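Cultured in 96-well plates, cells were exposed to test compound for 48 hours across five concentrations. At the GI50, growth is halved.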 Calls of active or inactive are those of the source. Cut-off read from the data, not from the text of the source: active = GI50 up to about 1.1 µM and inactive = higher.

What was measured:
Test in all cases: NCI-60 cell line screen, 48 h
RPMI-8226 = system: RPMI-8226
HOP-62 = system: HOP-62
HCT-116 = system: HCT-116
COLO 205 = system: COLO 205
OVCAR-3 = system: OVCAR-3
CAKI-1 = system: CAKI-1
KM12 = system: KM12
NCI-H522 = system: NCI-H522
OVCAR-5 = system: OVCAR-5
SK-MEL-2 = system: SK-MEL-2
MOLT-4 = system: MOLT-4
A549 = system: A549
SF-268 = system: SF-268
UACC-257 = system: UACC-257
SW-620 = system: SW-620
LOX IMVI = system: LOX IMVI
SR = system: SR
MDA-MB-435 = system: MDA-MB-435
NCI/ADR-RES = system: NCI/ADR-RES
MCF7 = system: MCF7

Measured: GI50

CCOC(=O)N1C/C(=C\c2ccc(N(C)C)cc2)C(=O)/C(=C/c2ccc(N(C)C)cc2)C1
inactive: RPMI-8226 > 100 µM | HOP-62 > 100 µM | HCT-116 > 100 µM | COLO 205 > 100 µM | OVCAR-3 > 100 µM | CAKI-1 > 100 µM | KM12 > 100 µM | NCI-H522 > 100 µM | OVCAR-5 > 100 µM | SK-MEL-2 > 100 µM | MOLT-4 > 100 µM | A549 > 100 µM | SF-268 > 100 µM | UACC-257 > 100 µM | SW-620 > 100 µM | LOX IMVI > 100 µM | SR > 100 µM

N#CC(C(=O)c1ccccc1F)c1nc2cc(C(F)(F)F)ccc2s1 (stereo not drawn)
inactive: RPMI-8226 22 µM | HOP-62 18.7 µM | MDA-MB-435 25.8 µM | HCT-116 19.2 µM | COLO 205 20.9 µM | NCI/ADR-RES 19.7 µM | OVCAR-3 16.6 µM | CAKI-1 32.3 µM | KM12 32.5 µM | NCI-H522 17.3 µM | OVCAR-5 21.2 µM | MOLT-4 31.1 µM | SF-268 30.3 µM | UACC-257 27.4 µM | SW-620 30.6 µM | LOX IMVI 17.6 µM

CCCCC(C(=O)C(=O)NC1C2CC3CC(C2)CC1C3)C(=O)C(C)C (stereo not drawn)
inactive: RPMI-8226 > 100 µM | HOP-62 > 100 µM | HCT-116 > 100 µM | COLO 205 > 100 µM | OVCAR-3 > 100 µM | CAKI-1 > 100 µM | KM12 > 100 µM | NCI-H522 > 100 µM | OVCAR-5 > 100 µM | SK-MEL-2 > 100 µM | MOLT-4 > 100 µM | A549 > 100 µM | SF-268 > 100 µM | UACC-257 > 100 µM | SW-620 > 100 µM | LOX IMVI > 100 µM | SR > 100 µM

COC(=O)C(Cc1nc2ccccc2nc1O)C(=O)C(=O)Nc1ccc([N+](=O)[O-])cc1[N+](=O)[O-] (stereo not drawn)
inactive: RPMI-8226 23.1 µM | HOP-62 24.2 µM | HCT-116 21.2 µM | COLO 205 16.4 µM | OVCAR-3 15.5 µM | CAKI-1 32.4 µM | KM12 16 µM | NCI-H522 6.22 µM | OVCAR-5 27.2 µM | SK-MEL-2 20.7 µM | MOLT-4 18.5 µM | A549 34.1 µM | SF-268 21.5 µM | UACC-257 19.7 µM | SW-620 18.7 µM | LOX IMVI 20.9 µM | SR 12 µM

CC(C)(C)OC(=O)N[C@@H](Cc1ccccc1)C(=O)N1CC[C@@H](C(=O)N2[C@H]3CC4CC[C@@]3(CS2(=O)=O)C4(C)C)N1
inactive: RPMI-8226 82.6 µM | HOP-62 78.3 µM | MDA-MB-435 51.9 µM | HCT-116 47.3 µM | COLO 205 46.9 µM | NCI/ADR-RES 62.5 µM | OVCAR-3 51.6 µM | CAKI-1 > 100 µM | KM12 79.1 µM | OVCAR-5 > 100 µM | SK-MEL-2 61.7 µM | MOLT-4 > 100 µM | A549 43.8 µM | SF-268 > 100 µM | UACC-257 > 100 µM | SW-620 62.8 µM | LOX IMVI 75.9 µM | SR > 100 µM

CCOC(=O)CSc1[nH]c2nc(C)nc(Cl)c2c1C#N
inactive: RPMI-8226 > 10 µM | HOP-62 > 10 µM | MDA-MB-435 > 10 µM | COLO 205 > 10 µM | CAKI-1 > 10 µM | KM12 > 10 µM | MOLT-4 > 10 µM | A549 > 10 µM | SF-268 > 10 µM | UACC-257 > 10 µM | SW-620 > 10 µM | MCF7 > 10 µM | LOX IMVI > 10 µM | SR > 10 µM

O=C(CO)CC(=O)C(=O)Nc1nc([N+](=O)[O-])cs1
inactive: RPMI-8226 > 100 µM | HOP-62 > 100 µM | HCT-116 > 100 µM | COLO 205 > 100 µM | OVCAR-3 > 100 µM | CAKI-1 > 100 µM | KM12 > 100 µM | NCI-H522 > 100 µM | OVCAR-5 > 100 µM | SK-MEL-2 > 100 µM | MOLT-4 > 100 µM | A549 > 100 µM | SF-268 > 100 µM | UACC-257 > 100 µM | SW-620 > 100 µM | LOX IMVI > 100 µM | SR > 100 µM

O=S(=O)(c1ccccc1)C(CN1CCCCC1)S(=O)(=O)c1ccccc1
inactive: RPMI-8226 > 100 µM | HOP-62 > 100 µM | COLO 205 > 100 µM | OVCAR-3 > 100 µM | CAKI-1 > 100 µM | KM12 > 100 µM | NCI-H522 > 100 µM | OVCAR-5 > 100 µM | SK-MEL-2 > 100 µM | MOLT-4 > 100 µM | A549 > 100 µM | SF-268 > 100 µM | UACC-257 > 100 µM | SW-620 > 100 µM | LOX IMVI > 100 µM | SR > 100 µM

COc1ccc(/C=N/CCC/N=C/c2ccc(OC)cc2O)c(O)c1
inactive: RPMI-8226 38.3 µM | HOP-62 > 100 µM | MDA-MB-435 46.1 µM | HCT-116 71.9 µM | OVCAR-3 16 µM | KM12 47.4 µM | NCI-H522 > 100 µM | OVCAR-5 64.4 µM | SK-MEL-2 34.8 µM | MOLT-4 49.1 µM | A549 > 100 µM | UACC-257 36.6 µM | SW-620 57.9 µM | MCF7 55.7 µM | SR 54.6 µM

O=C(/C=C/c1ccccc1Cl)NC1C=Nc2ccc([N+](=O)[O-])cc2NC1 (stereo not drawn)
inactive: RPMI-8226 30.8 µM | HOP-62 > 100 µM | HCT-116 59.6 µM | COLO 205 39.5 µM | OVCAR-3 42.3 µM | CAKI-1 66.8 µM | KM12 34.4 µM | NCI-H522 22.6 µM | OVCAR-5 > 100 µM | SK-MEL-2 > 100 µM | MOLT-4 13.4 µM | A549 > 100 µM | SF-268 > 100 µM | UACC-257 89.3 µM | SW-620 4.25 µM | LOX IMVI 39.4 µM | SR 14 µM

O=[N+]([O-])c1ccc(Cl)c2c([N+](=O)[O-])cccc12
inactive: RPMI-8226 5.52 µM | HOP-62 > 10 µM | MDA-MB-435 3.1 µM | HCT-116 1.76 µM | COLO 205 4.57 µM | OVCAR-3 3.49 µM | KM12 3.2 µM | SK-MEL-2 8.34 µM | MOLT-4 4.9 µM | A549 > 10 µM | SF-268 3.87 µM | SW-620 2.91 µM | MCF7 4.43 µM | LOX IMVI 3.71 µM | SR 3.95 µM

c1ccc(C2=NOC3COc4ccccc4OCC23)cc1 (stereo not drawn)
inactive: RPMI-8226 > 100 µM | HOP-62 > 100 µM | HCT-116 > 100 µM | COLO 205 > 100 µM | OVCAR-3 > 100 µM | CAKI-1 97.5 µM | KM12 8.17 µM | NCI-H522 > 100 µM | SK-MEL-2 > 100 µM | MOLT-4 > 100 µM | A549 > 100 µM | SF-268 > 100 µM | UACC-257 > 100 µM | SW-620 > 100 µM | LOX IMVI > 100 µM | SR > 100 µM

CN1N=C(c2ccncc2)OC1c1ccccc1F (stereo not drawn)
inactive: RPMI-8226 > 100 µM | HOP-62 > 100 µM | MDA-MB-435 > 100 µM | HCT-116 > 100 µM | COLO 205 > 100 µM | NCI/ADR-RES > 100 µM | OVCAR-3 > 100 µM | KM12 > 100 µM | NCI-H522 > 100 µM | OVCAR-5 > 100 µM | SK-MEL-2 > 100 µM | MOLT-4 > 100 µM | A549 > 100 µM | SF-268 > 100 µM | SW-620 > 100 µM | LOX IMVI > 100 µM

Cn1c(-c2ccccc2)c/c(=N\NS(C)(=O)=O)c2cc(S(=O)(=O)O)ccc21
inactive: RPMI-8226 > 100 µM | HOP-62 > 100 µM | HCT-116 > 100 µM | COLO 205 > 100 µM | OVCAR-3 > 100 µM | CAKI-1 > 100 µM | KM12 > 100 µM | NCI-H522 > 100 µM | OVCAR-5 > 100 µM | SK-MEL-2 > 100 µM | MOLT-4 > 100 µM | A549 > 100 µM | SF-268 > 100 µM | UACC-257 > 100 µM | SW-620 > 100 µM | LOX IMVI > 100 µM | SR > 100 µM

NC(=S)NS(=O)(=O)c1ccc(F)cc1
inactive: RPMI-8226 > 100 µM | HOP-62 > 100 µM | MDA-MB-435 > 100 µM | HCT-116 > 100 µM | COLO 205 > 100 µM | NCI/ADR-RES > 100 µM | OVCAR-3 > 100 µM | CAKI-1 > 100 µM | KM12 > 100 µM | NCI-H522 > 100 µM | OVCAR-5 > 100 µM | SK-MEL-2 > 100 µM | MOLT-4 > 100 µM | A549 > 100 µM | SF-268 > 100 µM | UACC-257 > 100 µM | SW-620 > 100 µM | LOX IMVI > 100 µM

Cc1ccc2c(c1)NC(c1ccc(C(=O)O)cc1)c1cccn1-2 (stereo not drawn)
inactive: RPMI-8226 > 100 µM | HOP-62 24 µM | MDA-MB-435 5.16 µM | HCT-116 47.9 µM | COLO 205 > 100 µM | OVCAR-3 47.3 µM | CAKI-1 15.6 µM | KM12 30.7 µM | OVCAR-5 > 100 µM | SK-MEL-2 43.9 µM | MOLT-4 64.1 µM | A549 36.3 µM | UACC-257 80.4 µM | SW-620 > 100 µM | MCF7 25.1 µM | LOX IMVI > 100 µM | SR > 100 µM
